{
  "source": "paper PMC6920962",
  "about": "“Unravelling the Skin Secretion Peptides of the Gliding Leaf Frog, Agalychnis spurrelli (Hylidae)” (Biomolecules, 2019)",
  "key": {"[1]": {"test_system": "Escherichia coli ATCC 25922", "parameters": "method as in 6 sources, ref Cuesta et al., 2019 (41) ||| ref Charpantier, et al., 1998 (39) ||| ref Raja et al., 2013 (40) ||| ref Reimer et al., 1981 (42) ||| ref 20, 22 = [20]; PMID 17561225; doi:10.1016/j.toxicon.2007.04.017; 20. Conlon J.M. Woodhams D.C. Raza H. Coquet L. Leprince J. Jouenne T. Vaudry H. Rollins-Smith L.A. Peptides with Differential Cytolytic Activity from Skin Secretions of the Lemur Leaf Frog Hylomantis || [22]; PMID 23415652; doi:10.1016/j.biochi.2013.02.005; 22. Xi X. Li R. Jiang Y. Lin Y. Wu Y. Zhou M. Xu J. Wang L. Chen T. Shaw C. Medusins: A New Class of Antimicrobial Peptides from the Skin Secretions of Phyllomedusine Frogs Biochimie 2013 95 1288 1296 ||| ...", "conditions": "cited from earlier work"}, "[2]": {"test_system": "Staphylococcus aureus ATCC 25923", "parameters": "method as in 4 sources, ref Cuesta et al., 2019 (41) ||| ref Charpantier, et al., 1998 (39) ||| ref Raja et al., 2013 (40) ||| ref Reimer et al., 1981 (42)", "conditions": "cited from earlier work"}, "P. aeruginosa": {"test_system": "P. aeruginosa", "conditions": "cited from earlier work"}, "[3]": {"conditions": "cited from earlier work"}, "[4]": {"test_system": "S. aureus Oxacillin Resistant (ORSA Strain 20)", "protocol": "(§1) For the in vitro evaluation of antimicrobial potentials of new biochemical structures identified herein, five synthetic peptides were purchased from a commercial supplier (Biomatik). Approximately 100 mg of each peptide was synthetized by Fmoc technology. […] The lyophilized peptides were kept at −20 °C and diluted in dimethyl sulfoxide (DMSO) before the antimicrobial assays, which were performed according to broth microdilution methodology detailed by Proaño et al.. Minimal inhibitory concentration of the synthetic peptides was determined against the following Gram-positive bacteria: Staphylococcus aureus ATCC 25923 and S. aureus oxacillin resistant strain; Gram-negative bacteria: Escherichia coli ATCC 25922 and Klebsiella pneumonia clinical isolate; and the opportunistic pathogenic yeast Candida albicans. Briefly, peptides were dissolved in DMSO at the following concentrations: 512, 256, 128, 64, 32, 16, 8, 4, 2, 1 […] mg/L. Each bacteria/yeast was cultured until reach log phase and then it was diluted to obtain 1 × 10^6 CFU/mL for bacteria and 1 × 10^5 CFU/mL for the yeast. Assays were prepared in 96 well sterile plates where 198 µL of each microorganism was challenged with 2 μL of the diluted peptides at the serial dilutions mentioned above. […] Another control included 200 μL of Muller Hinton broth without microorganisms to be used as blank with no growth. Seven replicates per peptide concentration was employed and experiments were performed in triplicates. […] MIC was determined as the minimal concentration of peptide required to inhibit the growth of >95% of microbial growth."}, "[5]": {"test_system": "Klebsiella pneumonia clinical isolate", "protocol": "as §1"}, "Candida albicans [6]": {"test_system": "Candida albicans", "parameters": "method as in Cuesta et al., 2019 (41)", "conditions": "broth microdilution; ref Cuesta et al., 2019 (41); cited from earlier work", "protocol": "In this work, skin secretion from this amphibian was analysed by molecular cloning and tandem mass spectrometry."}, "Candida albicans [7]": {"test_system": "Candida albicans", "conditions": "18 h", "protocol": "as §1"}, "[8]": {"test_system": "Escherichia coli ATCC 25922", "conditions": "ATCC 25922, 18 h", "protocol": "as §1"}, "[9]": {"test_system": "Staphylococcus aureus ATCC 25923", "conditions": "ATCC 25923, 18 h", "protocol": "as §1"}, "red blood cells": {"test_system": "red blood cells", "type": "cell-based", "protocol": "Aiming to determine the toxicity of frog peptides to red blood cells, in vitro assays were performed with different concentrations of each peptide. The diluted peptides (employing the same concentrations than for the antimicrobial assay described above) were incubated with a suspension of red blood cells (2%) (7.7 × 10^6 ± 0.3 × 10^6 cells/mL) at a ratio of 1:1 (v/v), in a total volume of 400 µL for 2 h at 37 °C. After the incubation period, the cells were centrifuged at 3000 rpm for 5 min and transferred to a 96 well plates. The haemolytic activity was monitored at 550 nm and was performed in triplicate. PBS and 2% (v/v) Triton X-100 were used as negative and positive controls, respectively."}, "[10]": {"conditions": "ref Reimer et al., 1981 (42), listed as ampicillin"}, "[11]": {"conditions": "ref Charpantier, et al., 1998 (39)"}, "[12]": {"conditions": "broth microdilution, 1 × 10^6 CFU/mL, 37 °C 18 h, OD 600 nm, MIC = >95% growth inhibition, seven replicates, triplicate experiments"}, "[13]": {"conditions": "broth microdilution, ref Cuesta et al., 2019 (41)"}, "[14]": {"conditions": "broth microdilution, ref Cuesta et al., 2019 (41), listed as dermaseptin-2"}},
  "note": "Several values for one entry are separate records, joined by “and”; a condition that tells them apart may be missing. Identical values can stand only once. Like-named read-outs stand apart in the source and are kept apart here. Marks after values point to notes of the source that are not given here. Ends that are not written are not given here.",
  "data": [
    {"compound": "CC1(C)S[C@@H]2[C@H](NC(=O)[C@H](N)c3ccccc3)C(=O)N2[C@H]1C(=O)O", "note": "[Ampicillin]", "values": [
      {"measurement": "MIC E. coli ATCC 25922", "setting": "[1]; ref Reimer et al., 1981 (42)", "result": "6.0 **** μM"},
      {"measurement": "MIC E. coli ATCC 25922", "setting": "[1]; [10]", "result": 6, "unit": "µM"},
      {"measurement": "MIC S. aureus ATCC 25923", "setting": "[2]; ref Reimer et al., 1981 (42)", "result": "0.1 **** μM"},
      {"measurement": "MIC S. aureus ATCC 25923", "setting": "[2]; [10]", "result": 0.1, "unit": "µM"}
    ]},
    {"compound": "ALWKDILKNVGKAAGKAVLNTVTDMVNQ-NH2 [Dermaseptin-B4, dermaseptin of P. bicolor]", "values": [
      {"measurement": "MIC P. aeruginosa", "setting": "P. aeruginosa", "result": "4.6 to 11.6", "unit": "µM"},
      {"measurement": "Concentration at which cytotoxicity was exhibited", "setting": "[3]", "result": 12, "unit": "µM"},
      {"measurement": "MIC E. coli ATCC 25922", "setting": "[1]; [11]", "result": "5.00 ** μM"},
      {"measurement": "MIC S. aureus ATCC 25923", "setting": "[2]; [11]", "result": "3.00 ** μM"},
      {"measurement": "MIC S. aureus ATCC 25923", "setting": "[2]; ref Charpantier, et al., 1998 (39), listed as DRS-B4", "result": 3, "unit": "µM"}
    ]},
    {"compound": "ALWKTMLKKLGTMALHAGKAALGAAADTISQGTQ [Dermaseptin-S1, dermaseptin of Phyllomedusa sauvagii]", "values": [
      {"measurement": "MIC E. coli ATCC 25922", "setting": "[1]; [11]", "result": "46 μM and 46.00 ** μM"},
      {"measurement": "MIC S. aureus ATCC 25923", "setting": "[2]; [11]", "result": "60.00 ** μM"}
    ]},
    {"compound": "ASWKVFLKNIGKAAGKAVLNSVTDMVNQ-NH2 [Dermaseptin-SP2]", "values": [
      {"measurement": "MIC S. aureus Oxacillin Resistant (ORSA Strain 20)", "setting": "[4]; Oxacillin Resistant (ORSA Strain 20, 18 h)", "result": 2.68, "unit": "µM"},
      {"measurement": "MIC S. aureus Oxacillin Resistant (ORSA Strain 20)", "setting": "[4]; [12]", "result": 8, "unit": "mg/L"},
      {"measurement": "MIC S. aureus Oxacillin Resistant (ORSA Strain 20)", "setting": "[4]; broth microdilution, 1 × 10^6 CFU/mL, 37 °C 18 h, OD 600 nm, MIC = >95% growth inhibition, seven replicates, triplicate experiments, listed as dermaseptin-2", "result": 2.68, "unit": "µM"},
      {"measurement": "MIC K. pneumoniae Clinical Isolate", "setting": "[5]; 18 h", "result": 10.71, "unit": "µM"},
      {"measurement": "MIC K. pneumoniae Clinical Isolate", "setting": "[5]; [12]", "result": 32, "unit": "mg/L"},
      {"measurement": "MIC C. albicans", "setting": "Candida albicans [6]", "result": 10.71, "unit": "µM"},
      {"measurement": "MIC E. coli ATCC 25922", "setting": "[1]; [13]", "result": 2.68, "unit": "µM"},
      {"measurement": "MIC E. coli ATCC 25922", "setting": "[1]; [14]", "result": 2.68, "unit": "µM"},
      {"measurement": "MIC S. aureus ATCC 25923", "setting": "[2]; [13]", "result": 2.68, "unit": "µM"},
      {"measurement": "MIC S. aureus ATCC 25923", "setting": "[2]; [14]", "result": 2.68, "unit": "µM"}
    ]},
    {"compound": "FLSLIPHIVSGVASIAKHFG [Phyloseptin-S1, phylloseptin of P. sauvagii]", "values": [
      {"measurement": "MIC E. coli ATCC 25922", "setting": "[1]; ref Raja et al., 2013 (40)", "result": "70.00 *** μM"},
      {"measurement": "MIC S. aureus ATCC 25923", "setting": "[2]; ref Raja et al., 2013 (40)", "result": "6.25 *** μM"}
    ]},
    {"compound": "FLSLIPHVISAIPHVVNALSNL-NH2 [Phylloseptin-SP1]", "values": [
      {"measurement": "MIC C. albicans", "setting": "Candida albicans [7]", "result": "> 217.69", "unit": "µM"},
      {"measurement": "MIC K. pneumoniae Clinical Isolate", "setting": "[5]; 18 h", "result": "> 189.00", "unit": "µM"},
      {"measurement": "MIC E. coli ATCC 25922", "setting": "[8]", "result": "> 217.69", "unit": "µM"},
      {"measurement": "MIC S. aureus ATCC 25923", "setting": "[9]", "result": "> 217.69", "unit": "µM"},
      {"measurement": "Toxicity to red blood cells compared with the dermaseptins", "setting": "red blood cells", "result": "greater toxicity to red blood cells than did the dermaseptins"}
    ]},
    {"compound": "SLRSSIKDMAAAAGRAALNAVNGIVNP-NH2 [Dermaseptin-SP5, novel dermaseptin of A. spurrelli, synthetic amidated peptide]", "values": [
      {"measurement": "MIC C. albicans", "setting": "Candida albicans [6]", "result": "384.24 μM and 1024 mg/L"},
      {"measurement": "MIC E. coli ATCC 25922", "setting": "[1]; [13]", "result": "96.06 μM and 256 mg/L"},
      {"measurement": "MIC S. aureus ATCC 25923", "setting": "[2]; [13]", "result": "> 192.12 μM and > 512 mg/L"}
    ]},
    {"compound": "SLWSSIKDMAAAAGRAALNAVNGILNP-NH2 [Dermaseptin-SP4]", "values": [
      {"measurement": "MIC K. pneumoniae Clinical Isolate", "setting": "[5]; 18 h", "result": 189.00, "unit": "µM"}
    ]},
    {"compound": "SLWSSIKDMAAAAGRAALNAVNGIVNP-NH2 [Dermaseptin-SP3]", "values": [
      {"measurement": "MIC K. pneumoniae Clinical Isolate", "setting": "[5]; 18 h", "result": "> 189.98", "unit": "µM"}
    ]}
  ]
}
